Data reported in ChEMBL document CHEMBL1201862, “PubChem BioAssay data set” (2004).
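Dose response: 5 concentrations. Exposure: 48 h. Format: 96-well plates. Endpoint: linear interpolation; highest concentration if not reached. Here, GI50 denotes the concentration required for 50% inhibition of growth.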 Active and inactive are the calls of the source. Rule as the data show it: active = GI50 up to about 1.1 µM and inactive = higher.

Experiments:
Test in all cases: growth of human tumour cells (NCI), 48 h
Hs-578T = tested on: Hs-578T
M19-MEL = tested on: M19-MEL
DMS-273 = tested on: DMS-273
DMS-114 = tested on: DMS-114
RXF 631 = tested on: RXF 631
HOP-18 = tested on: HOP-18
LXFL 529 = tested on: LXFL 529
KM-20L2 = tested on: KM-20L2
XF498 = tested on: XF498

Compound | GI50 (Hs-578T) | GI50 (M19-MEL) | GI50 (DMS-273) | GI50 (DMS-114) | GI50 (KM-20L2) | further results
C[C@@H]1OC(=O)C[C@H]2CC(=O)N(CCC3CN(S(=O)(=O)C(F)(F)F)c4ccccc43)C[C@@H]21 (stereo partly specified) | 85.1 µM (inactive) |  |  |  |  | 
Cc1c2cnccc2c(C)c2c1[nH]c1ccc(O)cc12 | > 10 µM (inactive) |  |  |  |  | 
COc1ccc(NN=C2C(=O)CCC2=O)cc1 |  | > 100 µM (inactive) | > 100 µM (inactive) | > 100 µM (inactive) |  | GI50 (RXF 631): > 100 µM (inactive); GI50 (HOP-18): > 100 µM (inactive)
O=C(O)C(CO)NC(=O)C1C(C(=O)O)C(c2ccccc2[N+](=O)[O-])C=C(c2ccco2)N1c1ccncc1 (stereo unspecified) | 13.5 µM (inactive) |  |  |  |  | 
CSc1ccc(Nc2cc(=O)[nH]c(=O)[nH]2)cc1 | > 100 µM (inactive) |  |  |  |  | 
CCOP1(=O)CC(C)=C(Cl)C(OC)C1 (stereo unspecified) | > 100 µM (inactive) |  |  |  |  | 
c1ccc2c(c1)NC(C1OC3CCCN3C1C1Nc3ccccc3S1)S2 (stereo unspecified) | > 100 µM (inactive) |  |  |  |  | 
CN1CCCC2(CCCc3ccccc32)C1 (stereo unspecified) |  | > 100 µM (inactive) | > 100 µM (inactive) | > 100 µM (inactive) | > 100 µM (inactive) | GI50 (LXFL 529): > 100 µM (inactive); GI50 (RXF 631): > 100 µM (inactive)
CC(C(=O)OCc1ccccc1)N(Cc1ccccc1)Cc1ccccc1 (stereo unspecified) |  |  | 57.9 µM (inactive) | 60.7 µM (inactive) | > 100 µM (inactive) | GI50 (LXFL 529): > 100 µM (inactive); GI50 (XF498): 24 µM (inactive)
Cc1ccc(C(=O)Nc2ncn(C3CC(O)C(CO)O3)c(=O)n2)cc1 (stereo unspecified) |  | > 100 µM (inactive) | > 100 µM (inactive) | > 100 µM (inactive) |  | GI50 (XF498): > 100 µM (inactive); GI50 (HOP-18): > 68.2 µM (inactive)
O=C1c2ccccc2C(=O)c2nn(N=P(CP(=Nn3nc4c(n3)C(=O)c3ccccc3C4=O)(c3ccccc3)c3ccccc3)(c3ccccc3)c3ccccc3)nc21 | > 100 µM (inactive) |  |  |  |  | 
COC(OC)c1cc2c(cc1C=O)OCO2 |  | > 100 µM (inactive) | > 100 µM (inactive) | > 100 µM (inactive) | > 100 µM (inactive) | 
COC1(OC)C2C=CC1C([C@](C)(N)CO)C2 (stereo partly specified) | > 100 µM (inactive) |  |  |  |  | 
CCOC(=O)C1=C(Nc2ccc(Cl)c(Cl)c2)OC/C1=N\NC(=O)Cc1ccccc1 |  | > 100 µM (inactive) | > 100 µM (inactive) | > 100 µM (inactive) | > 100 µM (inactive) | GI50 (LXFL 529): > 100 µM (inactive); GI50 (XF498): > 100 µM (inactive); GI50 (HOP-18): 87.7 µM (inactive)
CNS(=O)(=O)NN(C)S(=O)(=O)c1ccc(C)cc1 |  | > 100 µM (inactive) |  | > 100 µM (inactive) | > 100 µM (inactive) | 
Cc1coc2c1C(=O)C(=O)c1ccccc1-2 |  |  | 1.54 µM (inactive) | 0.161 µM (active) | 3.36 µM (inactive) | GI50 (LXFL 529): 0.403 µM (active); GI50 (HOP-18): < 0.01 µM (active)
CNc1ccc2nc(-c3ccc(OC(=O)N(C)C)cc3)cn2c1 | 41.2 µM (inactive) |  |  |  |  | 
Cc1csc(-c2cn(C)c3c2C(=O)C(=N)C=C3O)n1 | 3.86 µM (inactive) |  |  |  |  | 
CCCCCOc1ccc(/C=N\c2ccc(-c3ccc(/N=C\c4ccc(OCCCCC)cc4)c(OC)c3)cc2OC)cc1 |  | > 100 µM (inactive) | > 100 µM (inactive) | > 100 µM (inactive) | > 100 µM (inactive) | GI50 (XF498): > 100 µM (inactive); GI50 (HOP-18): 24.3 µM (inactive)
O=C1Oc2ccccc2N/C1=C/C(=O)c1ccc(Cl)cc1 | > 100 µM (inactive) |  |  |  |  | 
COc1ccc(C(=O)CCN(C)C)c2ccccc12 | 23.6 µM (inactive) |  |  |  |  | 
COc1ccc(C2C3CCc4ccccc4C3=NN2S(=O)(=O)c2ccc(Cl)cc2)cc1 (stereo unspecified) | 33 µM (inactive) |  |  |  |  | 
CCOC(C)O[C@H]1C(=O)OCC1(C)C (stereo partly specified) | > 100 µM (inactive) |  |  |  |  | 
O=[N+]([O-])c1ccc(S(=O)(=O)Cc2ccccc2)c2nonc12 | 24.3 µM (inactive) |  |  |  |  | 
OC(Cn1cncn1)(Cn1cncn1)c1ccc(Cl)cc1Cl |  | > 100 µM (inactive) | > 100 µM (inactive) | > 100 µM (inactive) | > 100 µM (inactive) | GI50 (LXFL 529): > 100 µM (inactive); GI50 (HOP-18): > 100 µM (inactive)
CC(=O)Nc1ccc(/C=C/c2ccc(NC(=O)Nc3ccc(/C=C/c4ccc(NC(C)=O)cc4S(=O)(=O)O)c(S(=O)(=O)O)c3)cc2S(=O)(=O)O)c(S(=O)(=O)O)c1 |  | > 100 µM (inactive) | > 87.9 µM (inactive) | 60.5 µM (inactive) | 77.8 µM (inactive) | GI50 (XF498): > 48 µM (inactive); GI50 (HOP-18): > 95.5 µM (inactive)
NC(CCCCNc1ccn(C2OC(CO)C(O)C2O)c(=O)n1)C(=O)O (stereo unspecified) | > 100 µM (inactive) |  |  |  |  | 
COCC(=O)[C@]1(O)Cc2c(O)c3c(c(O)c2[C@@H](OC2CC(N)C(O)C(C)O2)C1)C(=O)c1c(OC)cccc1C3=O (stereo partly specified) | < 0.01 µM (active) | 0.0676 µM (active) | 0.0391 µM (active) | 0.0718 µM (active) | 0.111 µM (active) | GI50 (LXFL 529): 0.0713 µM (active); GI50 (XF498): 0.0573 µM (active)
